Results on two molecules are retold here after PMC9763582, “Analyzing the postulated inhibitory effect of Manumycin A on farnesyltransferase” (Frontiers in Chemistry, 2022).

Data set [1] has as its target T1, C. elegans farnesyltransferase (ceFTase) (Caenorhabditis elegans, UniProt O44501+Q19752).
T1 construct: gene fntb-1; coding regions of FTα (NM_001392242.1) and FTβ (NM_001392654.1), N-terminal His-tag on β-subunit; with farnesyltransferase α-subunit (ceFNTA)
T1 sequence (Q19752 1-401): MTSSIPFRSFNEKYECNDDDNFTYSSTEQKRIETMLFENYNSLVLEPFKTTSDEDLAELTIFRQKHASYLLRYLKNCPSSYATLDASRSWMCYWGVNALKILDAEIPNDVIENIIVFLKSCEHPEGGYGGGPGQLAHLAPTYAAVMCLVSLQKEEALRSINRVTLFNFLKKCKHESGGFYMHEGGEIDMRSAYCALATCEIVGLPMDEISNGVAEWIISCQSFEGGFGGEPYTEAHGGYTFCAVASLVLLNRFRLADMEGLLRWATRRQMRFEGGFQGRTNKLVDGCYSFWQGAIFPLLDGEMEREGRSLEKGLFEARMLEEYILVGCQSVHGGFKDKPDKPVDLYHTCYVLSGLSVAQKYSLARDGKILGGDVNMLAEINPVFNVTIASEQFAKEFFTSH
T1 sequence (O44501 1-328): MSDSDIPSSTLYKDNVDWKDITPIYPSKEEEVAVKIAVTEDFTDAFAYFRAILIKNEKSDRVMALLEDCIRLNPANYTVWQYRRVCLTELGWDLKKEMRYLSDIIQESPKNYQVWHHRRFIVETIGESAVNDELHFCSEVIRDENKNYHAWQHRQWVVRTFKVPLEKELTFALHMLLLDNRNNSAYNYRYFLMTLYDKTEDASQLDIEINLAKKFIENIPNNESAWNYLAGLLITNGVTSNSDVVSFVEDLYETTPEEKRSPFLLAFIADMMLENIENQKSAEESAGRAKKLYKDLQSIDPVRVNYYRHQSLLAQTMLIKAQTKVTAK
The data set can be described thus: continuous fluorescence assay with Dansyl-GCVLS and FPP, […]°C; Ki calculated from IC50 […] (Cheng-Prusoff). The format is biochemical.

In data set [2] the target is T2, human farnesyltransferase (hFTase) (Homo sapiens, UniProt P49354+P49356).
T2 construct: gene FNTB; IMAC purified FTase, FTα/FTβ heterodimer, His-tagged β-subunit; with farnesyltransferase α-subunit (FNTA)
The data set is described as above. The format is biochemical.

Substrate in the data set “purified protein”: CC(C)=CCC/C(C)=C/CC/C(C)=C/CO[P@@](=O)(O)OP(=O)(O)O
The data set can be described thus: purified protein. Conditions: Zn2+ ([…] ZnCl2 in assay).

One may read the Ki as a measure of affinity in units of concentration, obtained from inhibition or displacement. `CCCC[C@@H](C)/C=C(C)/C=C(\C)C(=O)NC1=C[C@@](O)(/C=C/C=C/C=C/C(=O)NC2=C(O)CCC2=O)[C@@H]2O[C@@H]2C1=O` [Manumycin A]: the Ki is 3.16 µM in data set [1] and 4.4 µM in data set [2].

B1: C. elegans farnesyltransferase (ceFTase) (Caenorhabditis elegans) (protein)
chain 1: T1 sequence (Q19752 1-401)
chain 2: T1 sequence (O44501 1-328)
As a reminder, the Km is the concentration of substrate that gives half-maximal velocity. On to B1, for which the Km in the data set “purified protein” amounted to 1.3 µM.
